Experiments:
human plasma = experiment: Presaturation equilibrium dialysis, fraction unbound in human plasma; assay type: in vitro ADME; conditions: 5 μM PFAS, 18 h, 37 °C, value (CV)
Method: (§1) Each PFAS:matrix combination was assessed in quadruplicate.
(§2) The injection volume for each sample was 5 µL.

rat (Wistar-Han) plasma = experiment: Presaturation equilibrium dialysis, fraction unbound in rat plasma; assay type: in vitro ADME; conditions: 5 μM PFAS, 18 h, 37 °C, value (CV)
Method: as §1, §2

mouse (CD-1) plasma = experiment: Presaturation equilibrium dialysis, fraction unbound in CD-1 mouse plasma; assay type: in vitro ADME; conditions: 5 μM PFAS, 18 h, 37 °C, value (CV)
Method: as §1, §2

mouse (C57BL/6) plasma = experiment: Presaturation equilibrium dialysis, fraction unbound in C57BL/6 mouse plasma; assay type: in vitro ADME; conditions: 5 μM PFAS, 18 h, 37 °C, value (CV)
Method: as §1, §2

[1] = target: T1, human serum albumin (HSA) (Homo sapiens, UniProt P02768); experiment: Presaturation equilibrium dialysis, fraction unbound in human serum albumin solution; assay type: in vitro ADME; conditions: 4% human serum albumin in PBS, 5 μM PFAS, value (CV); for fraction unbound at 18 h, 5 µM: 4% human serum albumin (HSA) solution, read-out: Fraction Unbound (fu) and Coefficient of Variance (CV), HSA
T1 construct: purchased Sigma-Aldrich
Method: as §1, §2

rat serum albumin (RSA) = rat serum albumin (RSA) (Rattus norvegicus, UniProt P02770); experiment: Presaturation equilibrium dialysis, fraction unbound in rat serum albumin solution; conditions: for fraction unbound at 18 h, 5 µM: rat
Method: (§3) The equilibrium dialysis device (EQD) HTD96 (Gales Ferry, CT, USA) was assembled according to manufacturer instructions. DPBS buffer solutions were prepared by adding PFAS with a concentration of either approximately five-fold of the estimated fu values based on initial available data or assumed to be 0.001 if no data was available. The dialysis apparatus and membranes assembled were pre-saturated (250 µL) three times in total with PFAS spiked DPBS buffer solution; twice for 1 h followed by a final 18-h pre-saturation. This same solution was used on the receiver side of the EQD. […] This 4% albumin was used in the albumin binding study to recapitulate plasma concentration, as human albumin concentration in plasma is 3.5–4.5 g/dL (530–680 µM). The matrix was diluted five-fold using DPBS for PFAS that had preliminary fu values lower than 0.01. Dimethylsulfoxide (DMSO) stock solutions of test PFAS were prepared at 500 μM and added to species-specific plasma or 4% albumin to a final concentration of 5 μM with 1% DMSO. Next, 150 μL of PFAS spiked DPBS was added to the receiver side of the membrane and 150 μL of compound spiked matrix was added to the donor side. […] Each PFAS:matrix combination was assessed in quadruplicate. For sample collection, 15 μL of buffer and 45 μL of matrix were sampled from the dialysis device into a 96-deep well plate and matrix-matched with either blank buffer or matrix. The samples were then quenched with 200 μL of cold acetonitrile containing internal standard (tolbutamide 30 nM and carbamazepine 12 nM) to precipitate proteins. Next, the plates were sealed and placed on a vortex mixer for 1 min, and then centrifuged (Beckman Coulter, Fullerton, CA, USA) at 3000 rpm for 5 min at room temperature. Lastly, the supernatant was transferred to a new 96-well plate, fully dried down under nitrogen gas, reconstituted with 200 µL of 50/50 (v/v) HPLC grade water/acetonitrile, and vortexed for 1 min prior to LC-MS/MS analysis.
(§4) LC-MS/MS analyses were performed on a SCIEX Triple Quad 5500 mass spectrometer (SCIEX, Concord, ON, Canada) equipped with Turbo Ion Spray interface. […] All instruments were controlled and synchronized by SCIEX Analyst software (version 1.6.3). Mobile phases compositions were 0.1% formic acid in water (mobile phase A) and 0.1% formic acid in acetonitrile (mobile phase B). […] The column was equilibrated at 5% B for 0.5 min before injecting samples. The total run time for each injection was 6 min. The chromatographic separation was conducted on a Phenomenex Kinetex C18 100Å 30 × 2.1 mm column (Torrance, CA, USA) with a flow rate of 0.5 mL/min. The injection volume for each sample was 5 µL. Multiple-reaction-monitoring (MRM) mode using specific precursor/product ion transitions was used for quantification. Data processing was performed using SCIEX Analyst software (version 1.6.3).
(§5) The calculations for fu are shown in Equations (1) and (2), where D is the dilution factor and fu,d is the diluted fu shown below. All calculations are based on area ratios (analyte peak area/IS peak area), and MS responses used for calculations were all in linear ranges. […] (1) Diluted fud=Receiver Area Ratio/Donor Area Ratio (2) Undiluted fu=1/D/1/fu,d−1+1/D
(§6) Albumin concentrations for rodents have been reported in the literature as rat: 3.0 g/dL; CD-1 mice: 2.7 g/dL; C57BL/6 mice: 2.9 g/dL [53].

[2] = target: mouse serum albumin (MSA) (Mus musculus, UniProt P07724); experiment: Presaturation equilibrium dialysis, fraction unbound in mouse serum albumin solution; conditions: for fraction unbound at 18 h, 5 µM: mouse
Method: as §3, §4, §5, §6

[3] = humans; cited from earlier work
[4] = Presaturation equilibrium dialysis, fraction unbound in human plasma; assay type: in vitro ADME; conditions: human, 5 μM PFAS, 37 °C, value (CV), read-out: Fraction Unbound (fu) and Coefficient of Variance (CV), Human Plasma
Method: as §1, §2

[5] = Presaturation equilibrium dialysis, fraction unbound in rat plasma; assay type: in vitro ADME; conditions: Wistar-Han rat plasma, 5 μM PFAS, 37 °C, value (CV), read-out: Fraction Unbound (fu) and Coefficient of Variance (CV), Rat Plasma
Method: as §1, §2

[6] = Presaturation equilibrium dialysis, fraction unbound in CD-1 mouse plasma; assay type: in vitro ADME; conditions: 5 μM PFAS, 37 °C, value (CV), read-out: Fraction Unbound (fu) and Coefficient of Variance (CV), CD-1 Plasma
Method: as §1, §2

[7] = Presaturation equilibrium dialysis, fraction unbound in C57BL/6 mouse plasma; assay type: in vitro ADME; conditions: 5 μM PFAS, 37 °C, value (CV), read-out: Fraction Unbound (fu) and Coefficient of Variance (CV), C57BL/6 Plasma
Method: as §1, §2

[8] = 3% rat serum albumin, value (%CV)
[9] = 4% rat serum albumin in PBS, 5 μM PFAS, value (CV)
[10] = 3% mouse serum albumin, value (%CV)
[11] = 4% mouse serum albumin in PBS, 5 μM PFAS, value (CV)
[12] = 4% rat serum albumin (RSA) solution, Fraction Unbound (fu) and Coefficient of Variance (CV), RSA, 4% rat serum albumin in PBS, 5 μM PFAS, value (CV)
[13] = isolated protein, Fraction unbound (fu) and %CV, RSA 3%, 3% rat serum albumin, value (%CV)
[14] = 4% mouse serum albumin (MSA) solution, Fraction Unbound (fu) and Coefficient of Variance (CV), MSA, 4% mouse serum albumin in PBS, 5 μM PFAS, value (CV)
[15] = isolated protein, Fraction unbound (fu) and %CV, MSA 3%, 3% mouse serum albumin, value (%CV)

Sequence of rat serum albumin (RSA) (P02770 25-608): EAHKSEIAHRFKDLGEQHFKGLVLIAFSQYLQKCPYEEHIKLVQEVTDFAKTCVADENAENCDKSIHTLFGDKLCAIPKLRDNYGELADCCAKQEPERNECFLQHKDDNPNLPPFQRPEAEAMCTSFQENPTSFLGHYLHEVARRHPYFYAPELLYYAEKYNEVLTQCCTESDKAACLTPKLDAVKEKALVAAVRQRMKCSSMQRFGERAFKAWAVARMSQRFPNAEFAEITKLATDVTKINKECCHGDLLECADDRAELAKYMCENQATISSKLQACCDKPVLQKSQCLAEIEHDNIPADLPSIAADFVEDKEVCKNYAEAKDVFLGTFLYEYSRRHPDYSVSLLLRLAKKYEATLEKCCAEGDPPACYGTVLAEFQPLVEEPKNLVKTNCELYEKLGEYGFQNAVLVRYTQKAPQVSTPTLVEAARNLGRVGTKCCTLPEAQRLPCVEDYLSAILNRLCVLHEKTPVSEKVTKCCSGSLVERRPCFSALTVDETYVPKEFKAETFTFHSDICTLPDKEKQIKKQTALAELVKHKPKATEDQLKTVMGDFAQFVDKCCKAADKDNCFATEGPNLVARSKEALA
T1 sequence (P02768 25-609): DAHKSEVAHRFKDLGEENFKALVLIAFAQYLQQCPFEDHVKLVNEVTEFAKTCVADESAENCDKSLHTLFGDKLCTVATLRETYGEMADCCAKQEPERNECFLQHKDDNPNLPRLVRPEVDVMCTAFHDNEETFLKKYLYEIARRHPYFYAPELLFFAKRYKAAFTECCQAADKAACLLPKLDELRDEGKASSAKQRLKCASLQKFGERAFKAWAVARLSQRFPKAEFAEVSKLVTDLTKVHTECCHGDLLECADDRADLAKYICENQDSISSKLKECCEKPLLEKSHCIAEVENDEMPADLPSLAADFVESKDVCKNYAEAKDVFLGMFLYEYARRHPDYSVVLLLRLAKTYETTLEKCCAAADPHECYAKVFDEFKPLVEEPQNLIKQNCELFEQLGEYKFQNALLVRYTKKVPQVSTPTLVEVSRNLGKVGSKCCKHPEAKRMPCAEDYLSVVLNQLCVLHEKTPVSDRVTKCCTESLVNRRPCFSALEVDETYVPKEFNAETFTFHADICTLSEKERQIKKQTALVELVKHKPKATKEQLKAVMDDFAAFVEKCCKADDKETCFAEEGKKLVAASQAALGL
Sequence of mouse serum albumin (MSA) (P07724 25-608): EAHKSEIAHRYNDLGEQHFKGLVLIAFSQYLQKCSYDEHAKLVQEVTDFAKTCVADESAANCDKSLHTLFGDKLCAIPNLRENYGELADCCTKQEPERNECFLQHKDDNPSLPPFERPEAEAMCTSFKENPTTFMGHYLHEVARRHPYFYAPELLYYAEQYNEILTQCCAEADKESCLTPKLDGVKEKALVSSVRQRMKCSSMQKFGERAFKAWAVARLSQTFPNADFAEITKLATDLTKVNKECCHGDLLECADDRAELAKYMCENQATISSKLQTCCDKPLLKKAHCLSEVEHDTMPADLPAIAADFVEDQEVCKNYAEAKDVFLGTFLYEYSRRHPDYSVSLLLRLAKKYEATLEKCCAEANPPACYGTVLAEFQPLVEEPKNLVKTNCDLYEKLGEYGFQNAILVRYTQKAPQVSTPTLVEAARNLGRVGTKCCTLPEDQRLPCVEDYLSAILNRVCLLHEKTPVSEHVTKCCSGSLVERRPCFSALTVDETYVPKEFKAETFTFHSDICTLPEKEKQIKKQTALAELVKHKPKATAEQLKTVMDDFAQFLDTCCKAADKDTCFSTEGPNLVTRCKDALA

Compound	Fraction Unbound (fu) and Coefficient of Variance (CV), Human Plasma (human plasma)	Fraction Unbound (fu) and Coefficient of Variance (CV), Rat Plasma (rat (Wistar-Han) plasma)	Fraction Unbound (fu) and Coefficient of Variance (CV), CD-1 Plasma (mouse (CD-1) plasma)	Fraction Unbound (fu) and Coefficient of Variance (CV), C57BL/6 Plasma (mouse (C57BL/6) plasma)	Fraction Unbound (fu) and Coefficient of Variance (CV), HSA [1]	Fraction unbound (fu) and %CV, RSA 3% (rat serum albumin (RSA); [8])	Fraction Unbound (fu) and Coefficient of Variance (CV), RSA (rat serum albumin (RSA); [9])	Fraction unbound (fu) and %CV, MSA 3% [2, 10]	Fraction Unbound (fu) and Coefficient of Variance (CV), MSA [2, 11]	half-lives [3]	t1/2 [3]	fraction unbound at 18 h, 5 µM [4]	fraction unbound at 18 h, 5 µM [5]	fraction unbound at 18 h, 5 µM [6]	fraction unbound at 18 h, 5 µM [7]	fraction unbound at 18 h, 5 µM [1]	fraction unbound at 18 h, 5 µM (rat serum albumin (RSA); [12])	fraction unbound at 18 h, 5 µM (rat serum albumin (RSA); [13])	fraction unbound at 18 h, 5 µM [2, 14]	fraction unbound at 18 h, 5 µM [2, 15]
O=S(=O)(O)CCC(F)(F)C(F)(F)C(F)(F)C(F)(F)C(F)(F)C(F)(F)F [6:2 FtS, 6:2 fluorotelomer sulfonate]	0.0197(2%)	0.0236(4%)	0.0255(2%)	0.0253(2%)	0.00746(0%)	0.00892 (4%)	0.0111(4%)	0.0091 (9%)	0.0113(9%)	–	–	–	–	–	–	–	–	–	–	–
O=C(O)C(F)(F)C(F)(F)C(F)(F)F [PFBA, Perfluorobutanoic acid]	–	0.37(24%)	0.757(6%)	0.767(2%)	0.15(5%)	0.18 (3%)	0.216(3%)	0.206 (23%)	0.24(22%)	3 days	3.1 days	–	–	–	–	–	–	–	–	–
O=S(=O)(O)C(F)(F)C(F)(F)C(F)(F)C(F)(F)F [PFBS, perfluorobutanesulfonic acid]	–	0.0542(3%)	0.261(7%)	0.28(5%)	0.056(5%)	0.0168 (8%)	0.0208(8%)	0.0321 (11%)	0.0396(11%)	26 days	26 days	–	–	–	–	–	–	–	–	–
O=C(O)C(F)(F)C(F)(F)C(F)(F)C(F)(F)C(F)(F)C(F)(F)C(F)(F)C(F)(F)C(F)(F)C(F)(F)C(F)(F)F [PFDoDA, perfluorododecanoic acid]	–	–	–	–	–	–	–	–	–	–	–	0.000105	7.96e-05	0.000222	0.000205	0.000157	9.64e-05	7.77e-05	0.000217	0.000175
O=C(O)C(F)(F)C(F)(F)C(F)(F)C(F)(F)C(F)(F)F [PFHxA, perfluorohexanoic acid]	0.038(6%)	0.0358(7%)	0.169(5%)	0.182(7%)	0.0336(7%)	0.0212 (4%)	0.0264(4%)	0.0266 (11%)	0.0329(11%)	–	–	–	–	–	–	–	–	–	–	–
O=S(=O)(O)C(F)(F)C(F)(F)C(F)(F)C(F)(F)C(F)(F)C(F)(F)F [PFHxS, perfluorohexanesulfonic acid]	–	–	–	–	–	–	–	–	–	–	–	0.000695	0.00076	0.0128	0.013	0.000245	0.000573	0.00047	0.00225	0.00181
O=S(=O)(O)C(F)(F)C(F)(F)C(F)(F)C(F)(F)C(F)(F)C(F)(F)C(F)(F)C(F)(F)F [PFOS, perfluorooctanesulfonic acid]	–	0.00109(4%)	–	0.00256(8%)	0.000524(13%)	0.000697 (25%)	0.000852(25%)	0.00102 (19%)	0.00126(19%)	–	3.3–5.4 years	–	–	–	–	–	–	–	–	–
O=C(O)C(F)(F)C(F)(F)C(F)(F)C(F)(F)F [PFPA, perfluoropentanoic acid]	0.0888(3%)	0.18(2%)	0.609(4%)	0.577(5%)	0.0933(6%)	0.0769 (4%)	0.0942(4%)	0.0809 (11%)	0.0987(11%)	–	–	–	–	–	–	–	–	–	–	–
O=C(O)C(F)(F)C(F)(F)C(F)(F)C(F)(F)C(F)(F)C(F)(F)C(F)(F)C(F)(F)C(F)(F)C(F)(F)F [PFUDA, perfluoroundecanoic acid]	0.000419(24%)	0.000349(20%)	0.000524(15%)	–	0.000417(23%)	0.000147 (28%)	0.000178(28%)	0.000417 (19%)	0.000513(19%)	–	–	–	–	–	–	–	–	–	–	–
